“Also recorded” adds a separate entry of the source.

In the test the test system is E-selectin-expressing CHO cells. The experiment in a line: Rolling and adhesion of E-selectin-expressing CHO cells on ganglioside-coated beads under dynamic flow (parallel plate laminar flow chamber). The class given is cell-based, Chinese hamster. Conditions: for rolling of E-selectin-expressing CHO cells / adhesion of E-selectin-expressing CHO cells / rolling and adhesion of E-selectin-expressing CHO cells: dynamic flow conditions, shear stress 0.6-12 dynes/cm^2; for rolling and adhesion of E-selectin-expressing CHO cells at low ganglioside quantity: 0.05-0.1 ng ganglioside per spot (mixture 0.05 ng each), 1 μm beads (FIGS. 3B, 4A, 4B); for rolling and adhesion of E-selectin-expressing CHO cells at 100 ng ganglioside: 100 ng of single fraction or mixture of 50 ng each, 1 μm beads, 4.8 and 2.4 dynes/cm^2 (FIG. 3A). An excerpt: FIGS. 2A-2E show rolling and adhesion of E-selectin-expressing CHO cells to polystyrene beads coated with various gangliosides under dynamic flow conditions. Various poly-LacNac gangliosides were quantitatively adsorbed on beads affixed to glass microscope slides as described in the Materials & Methods section in the EXAMPLE. These polystyrene beads affixed on galss plates are resistant to dynamic flow. GSL coated on beads are therefore very stable in dynamic flow. Slides were blocked by placing 2% BSA in PBS at room temp for 1 hr, and assembled in a parallel-plate laminar-flow chamber. E-selectin-expressing CHO cells were freshly harvested and suspended in RPMI medium (1×10^5 cells/mL). The cell suspensions were placed in an infusion pump connected to the flow chamber, and infused into the assembly at various laminar flow rates. Cell movements were observed under phase-contrast microscope and recorded by videocassette recorder. Numbers of rolling cells (.smallcircle.) and adherent (nonrolling) cells (.circle-solid.), in at least 10 microscope fields, at four different shear stresses (dynes/cm^2; see abscissa), were plotted.
Polystyrene latex beads ([…] or 1 μm) used as carriers of GSLs as above were suspended in ethanol. 1 μL aliquots of suspension were placed on precleaned and specially treated microscope slides (Labcraft Superfrost® Plus, Curtin Matheson Scientific, Houston, Tex.). Beads were distributed homogeneously on the glass surface within a circular spot with diameter about 1 cm. Slides were heated at 150° C. for 50 sec, which caused the beads to adhere strongly to the surface such that they could not be washed off by water stream at various velocities. Gangliosides dissolved in IHW at the same molar concentration were applied to latex beads affixed on the slides; namely, 1 μL aliquots containing 50-100 or 0.05-0.1 ng ganglioside were placed on the center of a circular spot. The ganglioside thus became affixed to the bead surface.
Slides prepared as above, as they are or after treatment consisted of incubating said slides for at least an hour at room temperature with 3% BSA prewarmed at 37° C. and washing with PBS containing CA^2+ /Mg^2+ (i.e., PBS(+)) were placed in a parallel plate laminar flow chamber connected to an infusion pump (model 935, Harvard Apparatus, Cambridge, Mass.). The assembly, originally described by Lawrence et al. (Lawrence et al., 1990, Blood 75:227-237; Lawrence and Springer, 1991, Cell 65:859-873), simulates the flow shear stress present in physiological microvascular environments. A laminar flow with defined rate and wall shear stress is achieved by manipulation of the infusion pump, which is connected to the inlet of the flow chamber. A suspension of E- or P-selectin-expressing CHO cells (1×10^5 /mL in FIGS. 2A-2E, 2×10^5/ cells mL in FIG. 3A, 5×10^5 /cells mL in FIGS. 3B, 4A and 4B), freshly harvested from culture with EDTA, washed, and resuspended in 1% FCS-RPMI medium, was infused into the assembly at various laminar flow rates. Cell movements were observed under inverted phase-contrast microscope (Diaphot-TMD, Nikon) and recorded by time-lapse videocassette recorder. Cell rolling and adhesion were observed, and numbers of rolling and adherent cells during a 2 min period at shear stresses, from 0.6-12.0 dynes/cm^2 were counted from at least 10 fields on videotape. Wall shear stress (T) was calculated by the equation of Lawrence et al. (Lawrence et al., 1990 Blood 75:227-237; Lawrence et al., 1987, Blood 70: 1284-1290): T=3 μQ/2ba^2, where μ=coefficient of viscosity (1.0 cP), Q=volumetric flow rate (cm^3 /sec), a=half channel height (in this case, 5.7×10^-3 cm), and b=channel width (1.3 cm).
10, 13-1, and 14 (containing Str. 4-5, Str. 7-8, and Str. 9-12 in Table 1, respectively). […] 10 and 14, which have myelorollin structure and lack SLe^x epitope (FIG. 4). Polystyrene beads were affixed to glass microscope slides. Various gangliosides were coated as described in Materials & Methods. […]

Take “X^3 NeuAcVII^3 FucV^3 FucnLc10 Cer [Fr. 13-1]”: the “rolling of E-selectin-expressing CHO cells” value is “more frequent at 4.8 and 2.4 than at 1.2 dynes/cm^2; also recorded: caused strong rolling”. Where the note is “dynamic flow, 12, 4.8, 2.4, 1.2 and 0.6 dynes/cm^2 (FIGS. 6A-6D)”, the “shear stress at which plain rolling and rolling followed by adhesion was maximal / most clearly observed” value came out at 2.4 dynes/cm^2. Also, the “shear stress at which rolling (rolling/adhesion) was highest” value (dynamic flow, ganglioside on 1 μm beads (FIGS. 2D, 2E)) came to 4.8 dynes/cm^2.
As for “VI^3 NeuAcV^3 FucIII^3 FucnLc6 Cer [SLe^x -Le^x, reference compound]”, the “adhesion of E-selectin-expressing CHO cells” value was “Low level of adhesion without rolling; also recorded: adherent, but not rolling; also recorded: significantly lower than for Fr. 13-1 or 14; also recorded: only weak adhesion compared to Fr. 10-1, 10-2, 13-1 and 14; also recorded: relatively weak adhesion compared to Fr. 10-1, 10-2, 13-1, and 14”; the “rolling and adhesion of E-selectin-expressing CHO cells” value was “weaker than myelorollin structures; also recorded: weaker than myeloglycan or myelorollin structures”; the “rolling of E-selectin-expressing CHO cells” value was “not observed (or barely observed); also recorded: No rolling was observed”. Also, for the setting “listed as Str. 3”, the “adhesion of E-selectin-expressing CHO cells” value is given as “did produce cell adhesion, but to a lesser extent than the myelorollin fractions; also recorded: lower level of adhesion” and the “rolling of E-selectin-expressing CHO cells” value is on record as “no cell rolling”. Also, the “rolling of E-selectin-expressing CHO cells” value (listed as sialyl Le^x -Le^x) is on record as “No rolling was observed”. Under “dynamic flow, 4 μm beads, every field at all shear stresses (FIG. 2A)”, this substance came in with a rolling number of 0. In addition, the “number of cells adhered without rolling” value (dynamic flow, shear stresses 12 to 1.2 dynes/cm^2 (FIG. 6A)) was “less than 5 /field”. Where the note is “dynamic flow”, the “rolling and adhesion of E-selectin-expressing CHO cells at low ganglioside quantity” value was “no rolling or adhesion; also recorded: no rolling and adhesion observed; also recorded: essentially no cell rolling and adhesion; also recorded: did not cause any E-selectin-dependent cell rolling or adhesion”.
“VIII^3 NeuAcIII^3 FucnLc8 Cer [Fr. 10-2]”: the “rolling and adhesion of E-selectin-expressing CHO cells” value was “strong rolling and adhesion”. In addition, where the note is “dynamic flow”, the “rolling and adhesion of E-selectin-expressing CHO cells at 100 ng ganglioside” value was “comparable rolling and Vadhesion; also recorded: comparable to each other; also recorded: comparable adhesion”; the “rolling and adhesion of E-selectin-expressing CHO cells at low ganglioside quantity” value is “still produced marked rolling and adhesion”. In addition, under “dynamic flow, listed as 10-2”, the “rolling and adhesion of E-selectin-expressing CHO cells at 100 ng ganglioside” value is “comparable”; the “rolling and adhesion of E-selectin-expressing CHO cells at low ganglioside quantity” value is given as “still produced marked rolling/adhesion”.
With VI^3 NeuAcnLc6 Cer [Fr. 7], the “adhesion of E-selectin-expressing CHO cells” value is on record as “no cell adhesion”.
Take VIII^3 NeuAcV^3 FucnLc8 Cer [Fr. 10-1]: the “rolling and adhesion of E-selectin-expressing CHO cells” value was “strong rolling and adhesion”. Moreover, under “dynamic flow”, the “rolling and adhesion of E-selectin-expressing CHO cells at 100 ng ganglioside” value is “comparable rolling and Vadhesion; also recorded: comparable to each other; also recorded: comparable adhesion”; the “rolling and adhesion of E-selectin-expressing CHO cells at low ganglioside quantity” value is on record as “did not”. Besides, under “dynamic flow, listed as 10-1”, the “rolling and adhesion of E-selectin-expressing CHO cells at 100 ng ganglioside” value is “comparable”.
Consider X^3 NeuAcVII^3 FucnLc10 Cer [Fr. 12-2], for which the “rolling and adhesion of E-selectin-expressing CHO cells” value is “lower than for Frs. 13-1 and 14 (FIGS. 2C and 2E), but comparable to SLe^x -Le^x; also recorded: lower than for Fr. 13-1 and 14 (FIG. 2C and FIG. 2E), but comparable to SLe^x -Le^x”. Besides, the “Number of E-selectin expressing cells adhered on myelorollin under dynamic flow, column 5” value (0.6-1.2 dynes/cm^2, column head 5 (not explained)) was 5 (±2). For the same substance, the “Number of E-selectin expressing cells adhered on myelorollin under dynamic flow, column 10” value (0.6-1.2 dynes/cm^2, column head 10 (not explained)) is listed as 3 (±1). Further, the “shear stress at which rolling was highest” value (dynamic flow, ganglioside on 4 μm beads (FIG. 2B)) was 4.8 dynes/cm^2.
